Experiment: gradient 5% acetonitrile 3 min, to 50% in 2 min, to 85% in 15 min, held 3 min, 100 µL/min
Conditions: column: Zorbax Extend-C18 2.1 x 50 mm; eluents: water / acetonitrile, 0.1% formic acid
Procedure, shortened: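 Retention times of pure standards were taken from adduct peaks that were selected by computer and manually inspected. Over 3 months, mixtures of ~100 molecules were run by HPLC–quadrupole time-of-flight mass spectrometry in positive and negative ionization mode. The Zorbax Extend-C18 column (2.1 × 50 mm, 1.8 μm) ran at 100 μL/min in water and acetonitrile, each containing 0.1% formic acid, with 40 μL dead volume and 900 μL dwell volume.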

Structure (SMILES) | RP-LC retention time
CCOC(=O)c1[nH]c(C)c(CCC(=O)N2CCC(C(=O)NCCN3CCCCC3)CC2)c1C | 590 s
CCCCOC(=O)Cn1c(=O)c2c(nc3n2CCCCN3c2ccc(OCC)cc2)n(C)c1=O | 1100 s
CCCN1C(=O)c2c(C(=O)NCc3ccc(F)cc3)ncn2CC1(C)C(=O)NCCC(C)C (stereo not given) | 824 s
CS(=O)(=O)Nc1ccc(CC(=O)NCC(F)(F)F)cc1 | 623 s
Cc1noc(C)c1CC(=O)N1CCC2(CC1)N(CC1CC1)C(=O)CS2=O (stereo not given) | 613 s
Cc1oc(-c2[nH]ncc2C(=O)N(C)C)cc1S(=O)(=O)Nc1cccc(C(F)(F)F)c1 | 763 s
Cc1ccc(NS(=O)(=O)c2ccc(-c3c(C)noc3C)cc2)cc1F | 964 s
Fc1ccccc1N1CCN(c2ncc3c(n2)CCN(Cc2cccc(F)c2F)C3)CC1 | 826 s
CCCNc1cc(N2CCC(CCC(=O)O)CC2)ncn1 | 600 s
CNC(=O)[C@@H]1CN(C(=O)c2ccc3c(c2)OCO3)C[C@H]1c1n[nH]c(C)n1 | 580 s
COc1ccc(-c2ncccc2CNS(=O)(=O)Cc2ccccc2F)cc1 | 660 s
CCCNc1nc(N)c2ccccc2n1 | 573 s
COc1ccc(CNC(=O)c2ccc3c(c2)nc2n3CCN(C(C)C)C2=O)c(OC)c1 | 708 s
Cc1cccc(NC(=O)Cn2c(C)nc(C)c(C)c2=O)c1C | 641 s
CO[C@H]1CN(C(C)C)[C@H]1C1CCN(C(=O)C(C)C)CC1 | 557 s
O=C(Nc1nccs1)C1CCN(S(=O)(=O)c2cc(C(=O)N3CCOCC3)cs2)CC1 | 680 s
Cc1ccc(S(=O)(=O)CCc2noc(C(=O)NCCCN3CCCC(C)C3)n2)cc1 (stereo not given) | 632 s
Cc1ccc(S(=O)(=O)N2CCC(CCNC(=O)NCCC(C)C)CC2)cc1 | 715 s
Cc1ccc(OCc2nc3c4ccccc4ncn3n2)cc1 | 934 s
CCCN1C(=O)c2cc(S(=O)(=O)NCc3ccccc3)ccc2Oc2cccnc21 | 1050 s

Structure (SMILES) | RP-LC retention time
COc1ccc(Cl)cc1NC(=O)c1c(O)c2cccnc2n(-c2ccc(F)cc2)c1=O | 1280 s
O=C(CN1C(=O)C2CCCCN2c2ccc(C(=O)N3CCCC3)cc21)Nc1ccc2c(c1)OCO2 (stereo not given) | 794 s
Cc1cnc(C(=O)N2CCC(n3c(C)cnc3C3CCC3)C2)cn1 (stereo not given) | 560 s
CCC(=O)Nc1ccc2c(c1)nc(CN1CCCC1)n2C(C)C | 581 s
O=C(CN1C(=O)C2CCCCN2c2ccc(C(=O)N3CCCC3)cc21)NCCc1ccco1 (stereo not given) | 664 s
COc1ccc(C(C)NS(=O)(=O)c2cc(-c3nc(C(C)(C)C)cs3)cs2)cc1 (stereo not given) | 1240 s
C=Cc1ccc(CSc2ccc(-n3nc4c(c3C)CCC4)nn2)cc1 | 1070 s
Cc1nc2cc(N3CCC(C(=O)O)CC3)cnc2nc1C | 611 s
CCN1CCn2cc(S(=O)(=O)Nc3ccc(OC)c(Cl)c3)cc2C1=O | 730 s
COCCN1C(=O)c2cccn2CC1CNS(=O)(=O)c1c(C)noc1C (stereo not given) | 689 s
CCn1ccc2cc(S(=O)(=O)N3CCC(C(=O)NCCCN4CCCC(C)C4)CC3)ccc21 (stereo not given) | 676 s
COCCCNC(=O)C1c2cc(OC)c(OC)cc2C(=O)N(C)C1c1ccc(OC)cc1 (stereo not given) | 685 s
CC1CN(C2CCCCC2)c2nc3c(c(=O)n(CCCO)c(=O)n3C)n2C1 (stereo not given) | 803 s
CCCNC(=O)C1CCCN(C(=O)c2[nH]c(C)c(C)c2C)C1 (stereo not given) | 721 s
COc1ccc(NC(=O)N2CCC(N3C[C@H]4C[C@H](C3)[C@H]3CCCC(=O)N3C4)CC2)cc1 | 573 s
COc1ccc(-c2noc(Cn3ccn4nc(-c5ccc(C)cc5)cc4c3=O)n2)cc1OC | 986 s
Oc1cccc(-c2nc3cnccn3c2Nc2ccc(F)cc2)c1 | 728 s
O=C(Cn1nc(Cc2cccnc2)c2ccccc2c1=O)NCC1COc2ccccc2O1 (stereo not given) | 640 s
Cc1ccc(NC(=O)Cc2c(C)nn(-c3nc(-c4ccc(C)cc4)cs3)c2C)cc1 | 1270 s
Cc1cc(C(=O)Nc2ccc3c(c2)C(=O)N(C)CCO3)no1 | 624 s

More lines, now with the values ahead:

RP-LC retention time | Structure (SMILES)
657 s | O=C(O)c1nnn(-c2ccccc2F)c1-c1ccccn1
1020 s | O=C(Nc1cccc(Cl)c1)C(=O)c1cn(CC(=O)N2CCCC2)c2ccccc12
676 s | COCCNC(=O)N1CCCN(C2=NS(=O)(=O)C(c3ccccc3)=C2C)CC1
688 s | O=C(CC1CCCCC1)Nc1ccc(-c2cn3cccnc3n2)cc1
725 s | COc1ccccc1C(=O)N1CCC2(CC1)NC(=O)c1ccc(F)cc1N2C
715 s | O=C(NCCN1CCCCCC1)C1CCCN(c2ncc(-c3ccc(F)cc3)cn2)C1 (stereo not given)
888 s | O=C(CSc1nnc(NC(=O)c2c(F)cccc2Cl)s1)c1ccccc1
959 s | CN1C(=O)c2cc(S(=O)(=O)NCc3ccccc3)ccc2Oc2cccnc21
979 s | CC(C)(C)NC(=O)c1ccc2c(c1)CCCN2S(=O)(=O)c1ccccc1
983 s | COC(=O)c1ccc2c(=O)n(-c3cc(OC)cc(OC)c3)c(N3CCSCC3)nc2c1
874 s | COc1ccc(N2CC(c3noc(-c4ccc5c(c4)OCO5)n3)CC2=O)cc1 (stereo not given)
725 s | CCc1ccccc1NC(=O)N1CC(n2cc(COCC3CC3)nn2)C1
557 s | CN(C)CCNC(=O)c1ccc2ccnc(N3CCN(C(=O)c4ccco4)CC3)c2c1
892 s | Cc1ccccc1NS(=O)(=O)c1ccc2c(c1)C(=O)N(C)c1ncccc1O2
705 s | O=C(NC1CCN(c2cc(-c3cccs3)[nH]n2)C1)c1ccccc1Br (stereo not given)
724 s | O=C(CSc1nnc(-c2cccnc2)o1)c1cccc([N+](=O)[O-])c1
929 s | COCCc1noc(C2Cc3ccccc3N2C(=O)Nc2cc(OC)cc(OC)c2)n1 (stereo not given)
788 s | Cc1ccc(OCC(=O)Nc2nnc(C3CC(=O)N(c4ccc(Cl)cc4)C3)o2)cc1 (stereo not given)
780 s | CCn1cc(C(=O)NCCc2cccs2)c(=O)c2cc(OC)ccc21
641 s | Cc1csc(C(=O)Nc2cccc3ccc(-n4ccnc4)nc23)c1
886 s | CCOc1cccc(CNC(=O)c2cn3cc(Cl)ccc3n2)c1
885 s | CCC(C)n1nnc2cc(S(=O)(=O)N(C)CC(=O)NCCc3c[nH]c4ccccc34)ccc21 (stereo not given)
695 s | Cc1nc2cc(N3CCCC(C(=O)Nc4ccc5c(c4)OCO5)C3)cnc2nc1C (stereo not given)
696 s | CCOC(=O)c1cc(S(=O)(=O)N2CCCC2C(=O)N2CCc3ccccc32)cn1C (stereo not given)
835 s | O=C(NC1CC1)c1nc(-c2cccs2)cs1

RP-LC retention time | Structure (SMILES)
560 s | CCCC(=O)Nc1ccc2nc(N3CCN(CC)CC3)cc(C)c2c1
807 s | Cc1ccccc1S(=O)(=O)Nc1ccc(C(=O)N2CCCC2C(=O)NCCC(C)C)cc1 (stereo not given)
818 s | Cc1cc(=O)n(CC(=O)NCc2ccccc2Br)c(N2CCc3ccccc3C2)n1
707 s | COc1ccccc1-c1nnc(NC(=O)COc2ccccc2)o1
726 s | Cc1ccc(OCC(O)CN2CCN(c3ccccc3)CC2)cc1C (stereo not given)
784 s | COc1ccc2[nH]c(C(=O)N3CCN(C(=O)c4ccc(Br)o4)CC3)cc2c1
664 s | COc1ccc(OC)c(NC(=O)N2CCN(Cc3cn(C)c4ccccc34)CC2)c1
720 s | CCn1nc(C)c(CCNC(=O)c2ccc3nc(Cc4ccccc4)oc3c2)c1C
856 s | CCOc1ccccc1NC(=O)NCCCn1c(C(F)(F)F)nc2cccnc21
708 s | O=C(NCC(=O)N1CCCc2ccccc21)c1ccoc1
586 s | Cc1ccccc1NC(=O)c1cn2c(n1)CCCC2
1040 s | O=C(Nc1ccc(Br)cc1F)C1CCCN(S(=O)(=O)Cc2ccc(F)cc2)C1 (stereo not given)
1230 s | Cc1cc(NC(=O)CCc2nc(-c3ccc(N4CCCC4)cc3)no2)ccc1Br
597 s | Cc1nnc2cc(N3CCN(C(=O)Nc4ccc(F)cc4F)CC3)cnn12
942 s | O=C(O)Cc1sc(Nc2ccccc2Cl)nc1-c1ccccc1
561 s | CCOc1ccc(NC(=O)N2CCc3[nH]cnc3C2c2ccncc2)cc1 (stereo not given)
600 s | COc1ccc(-c2c(C)nn3c(N4CCN(c5ccccn5)CC4)cc(C)nc23)cc1OC
917 s | CCc1ccc(NC(=O)Cn2nc(C(=O)N3CCCC3)c3ccccc32)cc1
904 s | CCOc1ccccc1NC(=O)N1CCC2(CC1)NC(=O)c1cc(Cl)ccc1N2C
612 s | CCc1ccc(NC(=O)N2CCc3nc[nH]c3C2)cc1
703 s | C=CCn1c(NCc2cccc(Br)c2)nc2ccccc21
894 s | COc1ccc(N2CCN(c3cc(SCC(=O)Nc4cccc(OC)c4)ncn3)CC2)cc1
763 s | O=C(NCC1(c2cccs2)CCOCC1)c1ccccc1F
851 s | Cn1cnc2c(C(=O)N3CCC(c4ccccc4)C3)nn(-c3ccccc3)c2c1=O (stereo not given)
1110 s | CCn1c(=O)c2ccccc2n(Cc2nc(-c3ccc(Br)cc3)no2)c1=O

— the METLIN SMRT retention time set (Domingo-Almenara et al. 2019)
